± gives the expanded uncertainty stated by the source.
Assays:
[1] = 101.33 kPa, Liquid, Vibrating tube method
[2] = xn = mol fraction of the nth substance listed; details: x2 = 0; for surface tension liquid-gas: Ring tensiometer; for viscosity: 101.33 kPa, Liquid

| SMILES | mass density ([1]; 293.15 K) | mass density ([1]; 298.15 K) | surface tension liquid-gas ([2]; 283.15 K) | surface tension liquid-gas ([2]; 288.15 K) | surface tension liquid-gas ([2]; 293.15 K) | surface tension liquid-gas ([2]; 298.15 K) | viscosity ([2]; 298.15 K) | surface tension liquid-gas ([2]; 303.15 K) | viscosity ([2]; 303.15 K) |
| --- | --- | --- | --- | --- | --- | --- | --- | --- | --- |
| CCN(CC)CCO [(diethylamino)ethanol] | 884.14 ± 0.3 kg/m3 | 879.5 ± 0.3 kg/m3 | – | – | – | – | – | – | – |
| O [water] + CCN(CC)CCO | – | – | 73.74 ± 2.3 mN/m | 73.14 ± 2.2 mN/m | 72.59 ± 2.2 mN/m | 71.84 ± 2.2 mN/m | 0.89 ± 0.014 mPa·s | 71.2 ± 0.98 mN/m | 0.794 ± 0.013 mPa·s |

Reference: the NIST ThermoML archive (doi:10.1021/je700350b)
